These results are taken from patent publication US20220296611A1, “PHARMACEUTICAL COMPOSITION FOR PREVENTING OR TREATING CANCER” (SEOUL NATIONAL UNIVERSITY R&DB FOUNDATION, priority 2019, published 2022).

One assay has as its system Hepa cells (Hepa1c1c7). Briefly: Comparison of cell viability of Hepa cells (MTT assay, cell number counting). The assay is classed as cell-based, Murin. To be noted: 48 h. The method, then:
After culturing cells, the cells were resuspended in a fresh medium. After obtaining 200 μL of the cell suspension, […] of […] with a dilution factor of 2× was added thereto.
A hemocytometer equipped with a coverslip was prepared, and each chamber was filled with the suspension, followed by counting the number of cells. A specific counting method is as follows.
1) Live cells/ml=No. of cells counted/No. of squares counted×Dilution factor×1000
2) Dead cells/ml=No. of dead cells/No. of squares counted×Dilution factor×100
3) Percentage Viability=No. of live cells/Total No. of cells×100
As illustrated in the flow chart shown in FIG. 1, the degree of cytotoxicity was evaluated through MTT assay.
(1) In the present invention, all liver cancer cell lines were Murin hepatoma cell lines (Hepa1c1c7), hereinafter, referred to as Hepa cells. In this experiment, the following definitions were applied: no treatment group (NT); a fenbendazole treatment group (Fen); a TUDCA 200 μmol treatment group (TUDCA 200); a TUDCA 500 μmol treatment group (TUDCA 500); a TUDCA 1000 μmol treatment group (TUDCA 1000); a mixture of 1.2 μmol fenbendazole and 200 μmol TUDCA (1.2+200); a mixture of 1.2 μmol fenbendazole and 500 μmol TUDCA (1.2+500); a mixture of 1.2 μmol fenbendazole and 1000 μmol TUDCA (1.2+1000), respectively. […]
On the technique in general: Tetrazolium dyes change colour on reduction, which living cells bring about.

A further assay concerns HeLa cells. Briefly: Comparison of cell viability of HeLa cells (MTT assay). It counts as cell-based. The following applies: 24 h and 48 h after treatment; TUDCA 1000 μM, fenbendazole 1.2 μM, doxorubicin 10 μM. The method, then:
3. MTT Assay As illustrated in the flow chart shown in FIG. 1, the degree of cytotoxicity was evaluated through MTT assay. (1) HeLa cells are cervical cancer cell lines. In this experiment, experimental groups were divided as follows: specifically, a group in which HeLa cells are not treated, that is, no treatment group (NT); a doxorubicin-treated group (Doxo); a fenbendazole-treated group (Fen); a TUDCA treated group (TUDCA); and a group treated with a mixture of fenbendazole and TUDCA (Fen+TUDCA), and cell viability was compared over time (24 h, 48 h) after treatment. […] Further, the mixture of fenbendazole and TUDCA was prepared by mixing both compounds with the above concentrations at the same dose. Further, all treatment groups were treated with the corresponding compounds at the same dose.

The structures appear in SMILES notation.

Regarding `C[C@H](CCC(=O)NCCS(=O)(=O)O)[C@H]1CC[C@H]2[C@@H]3[C@@H](O)C[C@@H]4C[C@H](O)CC[C@]4(C)[C@H]3CC[C@]12C` [TUDCA, tauroursodeoxycholic acid], the “apoptosis effect depending on the concentration of TUDCA” value with Hepa cells (Hepa1c1c7) was “the higher the concentration of TUDCA, the better the apoptosis effect at 48 h”. Besides, in the assay on HeLa cells, the “apoptotic effects (cell viability of HeLa cells) compared to doxorubicin” value was “more excellent apoptotic effects at 24 h and 48 h after treatment than doxorubicin”.

As to `COC(=O)Nc1nc2ccc(Sc3ccccc3)cc2[nH]1` [fenbendazole], the “apoptotic effects (cell viability of HeLa cells) compared to doxorubicin” value with HeLa cells was “more excellent apoptotic effects at 24 h and 48 h after treatment than doxorubicin”.
